Source: patent US20030158254A1, “Engineering absorption of therapeutic compounds via colonic transporters” (XenoPort, Inc., priority 2002, published 2003)

Molecular target: T1, hSMVT (Homo sapiens, UniProt Q9Y289)
T1 sequence (Q9Y289 1-635): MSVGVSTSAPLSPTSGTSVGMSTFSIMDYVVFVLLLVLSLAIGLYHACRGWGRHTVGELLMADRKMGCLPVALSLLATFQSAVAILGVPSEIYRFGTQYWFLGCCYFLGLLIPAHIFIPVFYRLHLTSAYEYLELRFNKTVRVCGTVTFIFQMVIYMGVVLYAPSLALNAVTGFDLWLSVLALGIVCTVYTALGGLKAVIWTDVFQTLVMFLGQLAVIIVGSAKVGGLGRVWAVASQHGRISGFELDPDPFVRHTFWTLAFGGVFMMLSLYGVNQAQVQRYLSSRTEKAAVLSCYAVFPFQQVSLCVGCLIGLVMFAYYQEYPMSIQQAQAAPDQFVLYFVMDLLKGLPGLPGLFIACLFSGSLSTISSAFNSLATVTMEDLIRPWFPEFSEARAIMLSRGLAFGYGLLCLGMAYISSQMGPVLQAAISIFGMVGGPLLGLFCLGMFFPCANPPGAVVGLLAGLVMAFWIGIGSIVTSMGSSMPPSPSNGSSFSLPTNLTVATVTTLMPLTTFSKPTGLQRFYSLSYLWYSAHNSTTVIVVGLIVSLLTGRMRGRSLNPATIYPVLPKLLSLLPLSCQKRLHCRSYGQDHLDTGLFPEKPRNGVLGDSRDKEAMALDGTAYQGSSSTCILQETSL
Assay: Transport currents in SMVT-expressing Xenopus oocytes, normalized to biotin
Type: cell-based
Details: response relative to biotin, transporter-expressing oocytes, test compound 0.5 mM
Source text: The complete open reading frame of human ATBO+(SLC6A14) and SMVT (SLC5A6) were amplified from human cDNA prepared from liver or intestine mRNA. Gene-specific oligonucleotide primers were designed against Genbank sequences (AF151978 and NM-021095). Amplified PCR products were cloned into a modified version of the mammalian expression vector pcDNA3 (termed pMO) that was engineered to contain the 5′ and 3′ untranslated regions from the Xenopus beta-globin gene. All clones were completely sequenced and tested for function by transient transfection in HEK293 cells.
cRNA for oocyte expression was prepared by linearization of plasmid cDNA and in vitro transcription using T7 polymerase (Epicentre Ampliscribe kit). Xenopus oocytes were prepared and maintained as previously described (Collins et al., PNAS […]:5456-5460 (1997)) and injected with 10-30 ng RNA. Transport currents were measured 2-6 days later using two-electrode voltage-clamp (Axon Instruments). All experiments were performed using a modified oocyte Ringers solution (90 mM NaCl, 2 mM KCl, 1.8 mM CaCl2, 1 mM MgCl2, and 10 mM Na HEPES, pH 7.4; in Na^+-free solutions 90 mM choline chloride was substituted for NaCl). The membrane potential of oocytes was held at −60 mV and current traces acquired using PowerLab software (AD Instruments). Full 7-concentration dose-responses were performed for each compound. […] Half-maximal concentrations were calculated using non-linear regression curve fitting software (Prism) with the Hill co-efficient fixed to 1. To ensure that currents were specific for the over-expressed transporter, all compounds were tested against uninjected oocytes. Since both ATBO+ and SMVT require Na^+ for transport, we confirmed transport specificity by application of the compounds in a Na^+-free solution.
In vitro transport data for selected compounds on hSMVT-expressing cells

## CC(C)(N)C(=O)NCC1(CC(=O)O)CCCCC1 [Compound V, a-aminoisobutyryl gabapentin]
  % Max. (Biotin): 36%
